Blank lines part the entries; values can stand above or below the compound they belong to.
How the values were obtained:
[1] = tested on: HL-60; test: Cytotoxicity against human HL60 cells after 48 hrs by MTT assay; format: functional, cell-based; conditions: HL-60, 48 h
[2] = Cytotoxicity against human CRL1579 cells after 48 hrs by MTT assay; format: functional, cell-based
[3] = Inhibition of TPA-induced EBV early antigen activation in human Raji cells relative to TPA; format: cell-based, human gammaherpesvirus 4
[4] = tested on: Raji; test: Inhibition of TPA-induced EBV early antigen activation in human Raji cells at 100 molar relative to TPA; values are per cent of control; conditions: human gammaherpesvirus 4
[5] = tested on: Raji; test: Inhibition of TPA-induced EBV early antigen activation in human Raji cells at 500 molar relative to TPA; values are per cent of control; conditions: human gammaherpesvirus 4
[6] = tested on: Raji; test: Inhibition of TPA-induced EBV early antigen activation in human Raji cells at 1000 molar relative to TPA; values are per cent of control; conditions: human gammaherpesvirus 4
[7] = tested on: Raji; test: Inhibition of TPA-induced EBV early antigen activation in human Raji cells at 10 molar ratio relative to TPA; values are per cent of control; conditions: human gammaherpesvirus 4
[8] = Cytotoxicity against human Raji cells assessed as cell viability at 1000 molar ratio; format: cell-based; conditions: read-out: INH
[9] = organism: Mus musculus; test: Inhibition of DMBA-induced/TPA-promoted carcinogenesis in ICR mouse assessed as reduction of skin papillomas measured after 20 weeks relative to TPA; format: functional
[10] = organism: Mus musculus; test: Inhibition of DMBA-induced/TPA-promoted carcinogenesis in ICR mouse assessed as reduction of skin papillomas measured after 11 weeks relative to TPA; format: functional

Compound: C=C(CC[C@@H](C(=O)O)[C@H]1[C@H](O)C[C@@]2(C)C3=CC[C@H]4C(C)(C)[C@H](O)CC[C@]4(C)C3=CC[C@]12C)C(C)(C)O
IC50 [1]: 29.4 µM
IC50 [2]: 84 µM

Compound: C=C(CC[C@@H](C(=O)O)[C@H]1[C@H](O)C[C@@]2(C)C3=CC[C@@H](C(=C)C)[C@](C)(CCC(=O)OC)C3=CC[C@]12C)C(C)C [PORICOIC ACID AM]
IC50 [1]: 15.9 µM
IC50 [2]: 88.9 µM

IC50 [3]: 397 molar ratio
Compound: CC1=C(/C=C/C(C)=C/C=C/C(C)=C/C=C/C=C(C)/C=C/C=C(C)/C=C/C2=C(C)CCCC2(C)C)C(C)(C)CCC1 [BETA CAROTENE]
level, % of control [4]: 82.1%
level, % of control [5]: 34.2%
level, % of control [6]: 8.6%
level, % of control [7]: 100%

IC50 [3]: 216 molar ratio
Compound: C=C(C)[C@@H]1CCC2=C(CC[C@]3(C)[C@@H]([C@@H](CCC=C(C)C)C(=O)O)[C@H](O)C[C@@]23C)[C@@]1(C)CCC(=O)OC [PORICOIC ACID GM]
viability at 1000 molar ratio [8]: 70%
level, % of control [4]: 60.1%
level, % of control [5]: 19.9%
level, % of control [6]: 0%
level, % of control [7]: 86.4%

Compound: C=C(CC[C@@H](C(=O)O)[C@H]1[C@H](O)C[C@@]2(C)C3=CC[C@@H](C(=C)C)[C@](C)(CCC(=O)O)C3=CC[C@]12C)C(C)C [PORICOIC ACID A]
IC50 [1]: 38 µM
IC50 [2]: > 100 µM

Compound: C=C(CC[C@@H](C(=O)O)[C@H]1[C@H](O)C[C@@]2(C)C3=C(CC[C@]12C)[C@@](C)(CCC(=O)O)[C@H](C(=C)C)CC3)C(C)C [PORICOIC ACID H]
IC50 [1]: 28.4 µM
IC50 [2]: > 100 µM

IC50 [3]: 193 molar ratio
Compound: C=C(CC[C@@H](C(=O)O)[C@H]1[C@H](O)C[C@@]2(C)C3=C(CC[C@]12C)[C@@](C)(CCC(=O)O)[C@H](C(=C)C)C=C3)C(C)C [6,7-DEHYDROPORICOIC ACID H]
viability at 1000 molar ratio [8]: 70%
IC50 [1]: > 100 µM
IC50 [2]: > 100 µM
level, % of control [4]: 56%
level, % of control [5]: 15.2%
level, % of control [6]: 0%
level, % of control [7]: 80.9%

Compound: C=C(C)[C@@H]1CC=C2C(=CC[C@]3(C)[C@@H]([C@@H](CCC(=C)C(C)(C)O)C(=O)O)[C@H](O)C[C@@]23C)[C@@]1(C)CCC(=O)OC [PORICOIC ACID DM]
IC50 [1]: > 100 µM
IC50 [2]: > 100 µM

Compound: C=C(C)[C@@H]1CCC2=C(CC[C@]3(C)[C@@H]([C@@H](CCC=C(C)C)C(=O)O)[C@H](O)C[C@@]23C)[C@@]1(C)CCC(=O)O [PORICOIC ACID G]
IC50 [1]: 32.6 µM
IC50 [2]: > 100 µM

Compound: C=C(CC[C@@H](C(=O)O)[C@H]1[C@H](O)C[C@@]2(C)[C@]34C=C[C@@]5(OO3)C(C)(C)[C@@H](O)CC[C@]5(C)C4=CC[C@]12C)C(C)C
IC50 [1]: > 100 µM
IC50 [2]: > 100 µM

IC50 [3]: 201 molar ratio
Compound: C=C(C)[C@@H]1CC=C2C(=CC[C@]3(C)[C@@H]([C@@H](CCC(=C)C(C)(C)O)C(=O)O)CC[C@@]23C)[C@@]1(C)CCC(=O)O [25-HYDROXYPORICOIC ACID C]
viability at 1000 molar ratio [8]: 70%
IC50 [1]: 30.8 µM
IC50 [2]: 92.7 µM
level, % of control [4]: 57.1%
level, % of control [5]: 16.2%
level, % of control [6]: 0%
level, % of control [7]: 83.1%

IC50 [3]: 219 molar ratio
Compound: C=C(CC[C@@H](C(=O)O)[C@H]1[C@H](O)C[C@@]2(C)C3=C(CC[C@]12C)[C@@](C)(CCC(=O)OC)[C@H](C(=C)C)CC3)C(C)C [PORICOIC ACID HM]
viability at 1000 molar ratio [8]: 70%
level, % of control [4]: 61.3%
level, % of control [5]: 20.3%
level, % of control [6]: 0%
level, % of control [7]: 87.5%

IC50 [3]: 268 molar ratio
Compound: C=C(C)[C@@H]1CC=C2C(=CC[C@]3(C)[C@@H]([C@@H](CCC(=C)C(C)(C)OC)C(=O)O)[C@H](O)C[C@@]23C)[C@@]1(C)CCC(=O)O [25-METHOXYPORICOIC ACID A]
inhibition (INH) [9]: 80%
viability at 1000 molar ratio [8]: 70%
inhibition (INH) [10]: 20%
IC50 [1]: > 100 µM
IC50 [2]: > 100 µM
level, % of control [4]: 58.2%
level, % of control [5]: 17.8%
level, % of control [6]: 0%
level, % of control [7]: 84.4%

IC50 [3]: 299 molar ratio
Compound: C=C(CC[C@@H](C(=O)O)[C@H]1[C@H](O)C[C@@]2(C)C3=C(CC[C@]12C)[C@@]1(C)CCC(=O)C(C)(C)[C@@H]1CC3)C(C)(C)O
viability at 1000 molar ratio [8]: 70%
IC50 [1]: 84.7 µM
IC50 [2]: 28.7 µM
level, % of control [4]: 72.2%
level, % of control [5]: 36.1%
level, % of control [6]: 0%
level, % of control [7]: 96.1%

Compound: C=C(C)[C@@H]1CC=C2C(=CC[C@]3(C)[C@@H]([C@@H](CCC=C(C)C)C(=O)O)[C@H](O)C[C@@]23C)[C@@]1(C)CCC(=O)O [PORICOIC ACID B]
IC50 [1]: > 100 µM
IC50 [2]: > 100 µM

IC50 [3]: 348 molar ratio
Compound: C=C(CC[C@@H](C(=O)O)[C@H]1[C@H](O)C[C@@]2(C)C3=C(CC[C@]12C)[C@@]1(C)CCC(=O)C(C)(C)[C@@H]1CC3)C(C)C
viability at 1000 molar ratio [8]: 70%
IC50 [1]: > 100 µM
IC50 [2]: > 100 µM
level, % of control [4]: 70.3%
level, % of control [5]: 28.3%
level, % of control [6]: 2.2%
level, % of control [7]: 96.4%

IC50 [3]: 238 molar ratio
Compound: CC(C)(O)c1ccc2c(c1)C(=O)C[C@H]1[C@](C)(C(=O)O)CCC[C@]21C
viability at 1000 molar ratio [8]: 60%
IC50 [1]: > 100 µM
IC50 [2]: > 100 µM
level, % of control [4]: 69.1%
level, % of control [5]: 19.5%
level, % of control [6]: 0%
level, % of control [7]: 93.4%

IC50 [3]: 187 molar ratio
Compound: C=C(C)[C@@H]1CC=C2C(=CC[C@]3(C)[C@@H]([C@@H](CCC(=C)C(C)(O)CO)C(=O)O)[C@H](O)C[C@@]23C)[C@@]1(C)CCC(=O)OC (stereo partly specified)
viability at 1000 molar ratio [8]: 70%
IC50 [1]: 94.6 µM
IC50 [2]: 98.4 µM
level, % of control [4]: 55.3%
level, % of control [5]: 14.1%
level, % of control [6]: 0%
level, % of control [7]: 80.2%
